The record followed here is patent publication US9127003B2, “2-(azaindol-2-yl)benzimidazoles as PAD4 inhibitors” (Glaxo Group Limited, priority 2012, dated 2015).

For assay [1], the target named is T1, Recombinant human PAD2 (residues 1-665) (Homo sapiens, UniProt Q9Y2J8).
T1 construct: Recombinant human PAD2 (residues 1-665); 6His-FLAG (N); made in house; host or cells: baculovirus-infected Sf9 insect cells
Kind of assay: PAD2 enzyme assay (NH3 release, BAEE substrate, fluorescence). It is filed as biochemical. Conditions: PAD2 enzyme assay above or similar assays; read-out: mean pIC50 (converted). The protocol: Recombinant human PAD2 (residues 1-665) was expressed in baculovirus-infected Sf9 insect cells as an N-terminal 6His-FLAG-tagged fusion protein. Activity of the final product was determined using a FLINT NH3 release assay.
8 μl of PAD2 enzyme diluted to an assay concentration of 30 nM in assay buffer (100 mM HEPES, 50 mM NaCl, 2 mM DTT, 7.5% glycerol and 1.5 mM CHAPS pH 8), and added to wells containing 0.1 μl of various concentrations of compound or DMSO vehicle (0.8% final) in a Greiner high volume 384 well black plate. Following 30 mins pre-incubation at room temperature, the reaction was initiated by the addition of 4 μl of substrate buffer containing 180 uM N-a-benzoyl-L-arginine ethyl ester (BAEE), 100 mM HEPES, 50 mM NaCl, 240 uM CaCl2 (2H2O) and 2 mM DTT, pH 8.0. The reaction was stopped after 90 mins with the addition of 38 μl stop/detection buffer containing 50 mM EDTA, 2.6 mM phthalaldehyde and 2.6 mM DTT. Assay incubated at room temperature for 90 mins before measuring fluorescent signal (λex 405/λem 460) on an Envision plate reader (Perkin Elmer Life Sciences, Waltham, Mass., USA)

The target of assay [2] is T2, Recombinant human PAD4 (residues 1-663) (Homo sapiens, UniProt Q9UM07).
T2 construct: Recombinant human PAD4 (residues 1-663); GST (N, cleaved yes); made in house; host or cells: E. coli
T2 sequence (Q9UM07 whole entry, the tested form may be a part): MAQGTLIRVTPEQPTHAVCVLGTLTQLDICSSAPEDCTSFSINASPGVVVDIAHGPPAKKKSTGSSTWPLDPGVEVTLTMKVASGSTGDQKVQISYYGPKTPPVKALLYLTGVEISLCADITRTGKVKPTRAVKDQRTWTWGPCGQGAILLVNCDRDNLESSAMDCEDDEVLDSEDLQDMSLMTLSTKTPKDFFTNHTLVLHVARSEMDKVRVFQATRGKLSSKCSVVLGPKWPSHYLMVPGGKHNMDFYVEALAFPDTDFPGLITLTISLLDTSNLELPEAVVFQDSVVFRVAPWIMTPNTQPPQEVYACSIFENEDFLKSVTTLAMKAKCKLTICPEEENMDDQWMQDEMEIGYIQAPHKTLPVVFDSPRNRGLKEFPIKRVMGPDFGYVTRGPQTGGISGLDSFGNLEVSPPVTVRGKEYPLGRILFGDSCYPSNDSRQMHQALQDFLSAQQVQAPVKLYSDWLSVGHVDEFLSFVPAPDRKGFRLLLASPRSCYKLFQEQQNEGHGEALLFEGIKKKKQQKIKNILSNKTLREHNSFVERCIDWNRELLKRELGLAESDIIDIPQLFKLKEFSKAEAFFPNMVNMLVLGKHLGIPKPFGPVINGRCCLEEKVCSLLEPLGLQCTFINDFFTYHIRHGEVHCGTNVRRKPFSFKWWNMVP
Kind of assay: PAD4 enzyme assay (NH3 release, BAEE substrate, fluorescence). It is filed as biochemical. Conditions: PAD4 enzyme assay above (Conditions A or B) or similar assays; read-out: mean pIC50 (converted). On the procedure:
Recombinant human PAD4 (residues 1-663) was expressed in E. coli as an N-terminal GST-tagged fusion protein. During purification of the protein, the GST tag was removed by cleavage with PreScission Protease (GE Healthcare). Activity of the final product was determined using a FLINT NH3 release assay.
(§1) 8 μl of PAD4 enzyme diluted to an assay concentration of 75 nm in assay buffer (a).: (100 mM HEPES, 50 mM NaCl, 2 mM DTT and 0.6 mg/mIBSA pH 8), or in assay buffer (b).: (100 mM HEPES, 50 mM NaCl, 2 mM DTT, 7.5% glycerol and 1.5 mM CHAPS pH 8), and added to wells containing 0.1 μl of various concentrations of compound or DMSO vehicle (0.8% final) in a Greiner high volume 384 well black plate. Following 30 mins pre-incubation at room temperature, the reaction was initiated by the addition of 4 μl of substrate buffer containing 3 mM N-a-benzoyl-L-arginine ethyl ester (BAEE), 100 mM HEPES, 50 mM NaCl, 600 uM CaCl2 (2H2O) and 2 mM DTT, pH 8.0. The reaction was stopped after 100 mins with the addition of 38 μl stop/detection buffer containing 50 mM EDTA, 2.6 mM phthalaldehyde and 2.6 mM DTT. Assay incubated at room temperature for 90 mins before measuring fluorescent signal (λex 413/λem 476) on an Envision plate reader (Perkin Elmer Life Sciences, Waltham, Mass., USA)
as §1, with “of 30 nM” for “of 75 nm”, “buffer” for “buffer (a).:”, “mg/mIBSA” for “mg/mIBSA pH 8), or in assay buffer (b).: (100 mM HEPES, 50 mM NaCl, 2 mM DTT, 7.5% glycerol and 1.5 mM CHAPS”, “after 60” for “after 100”, “(λex 405/λem 460)” for “(λex 413/λem 476)”

“And” between values parts separate entries of the source, which are not always exact repeats. Equal values may be shown once. Where a name gives a salt, the structure may show the parent alone.

T1 sequence (Q9Y2J8 whole entry, the tested form may be a part): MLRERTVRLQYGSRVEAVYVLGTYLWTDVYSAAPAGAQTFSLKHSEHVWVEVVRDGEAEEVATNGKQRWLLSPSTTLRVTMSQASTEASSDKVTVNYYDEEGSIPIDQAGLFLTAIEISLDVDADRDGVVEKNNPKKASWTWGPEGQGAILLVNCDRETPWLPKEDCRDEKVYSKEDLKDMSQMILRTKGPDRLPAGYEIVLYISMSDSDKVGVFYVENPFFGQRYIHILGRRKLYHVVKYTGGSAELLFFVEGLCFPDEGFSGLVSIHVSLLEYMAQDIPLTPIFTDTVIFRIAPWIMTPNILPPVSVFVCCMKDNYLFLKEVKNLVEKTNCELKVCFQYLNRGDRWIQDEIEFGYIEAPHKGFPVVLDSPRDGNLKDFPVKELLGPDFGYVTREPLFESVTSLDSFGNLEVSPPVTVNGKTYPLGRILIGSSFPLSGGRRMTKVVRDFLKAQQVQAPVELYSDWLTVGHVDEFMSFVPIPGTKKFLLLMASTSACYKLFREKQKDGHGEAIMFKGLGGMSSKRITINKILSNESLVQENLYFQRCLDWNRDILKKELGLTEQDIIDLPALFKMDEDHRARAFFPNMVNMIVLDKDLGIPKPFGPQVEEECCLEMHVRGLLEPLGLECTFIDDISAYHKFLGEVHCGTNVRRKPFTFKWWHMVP

`COc1cc(C(=O)N2CCC[C@@H](N)C2)cc2nc(-c3cc4cccnc4n3CC3CC3)n(C)c12` [Example 10B, (R)-(3-Aminopiperidin-1-yl)(2-(1-(cyclopropylmethyl)-1H-pyrrolo[2,3-b]pyridin-2-yl)-7-methoxy-1-methyl-1H-benzo[d]imidazol-5-yl)methanone, hydrochloride]: the IC50 was 63.1 to 79.4 µM and > 79.4 µM in assay [1]; 0.0316 to 10 µM and 0.0501 µM in assay [2].
With `COc1cc(C(=O)N2CCC[C@@H](N)C2)cc2nc(-c3cc4cccnc4n3CC(F)(F)F)n(C)c12` [Example 11B, (R)-(3-Aminopiperidin-1-yl)(7-methoxy-1-methyl-2-(1-(2,2,2-trifluoroethyl)-1H-pyrrolo[2,3-b]pyridin-2-yl)-1H-benzo[d]imidazol-5-yl)methanone, hydrochloride], the IC50 in assay [1] was 63.1 to 79.4 µM and > 79.4 µM; in assay [2], 0.0316 to 10 µM and 0.126 µM.
For the compound `Cn1c(-c2cc3cccnc3n2CC2CC2)nc2cc(C(=O)N3CC[C@@H](O)[C@@H](N)C3)ccc21` [Example 13, ((3S,4R)-3-Amino-4-hydroxypiperidin-1-yl)(2-(1-(cyclopropylmethyl)-1H-pyrrolo[2,3-b]pyridin-2-yl)-1-methyl-1H-benzo[d]imidazol-5-yl)methanone, hydrochloride], the IC50 in assay [1] was 63.1 to 79.4 µM; in assay [2] it was 0.0316 to 10 µM.
Consider `COc1cc(C(=O)N2CC[C@@H](O)[C@@H](N)C2)cc2nc(-c3cc4cccnc4n3CC3CC3)n(C)c12` [Example 14, ((3S,4R)-3-Amino-4-hydroxypiperidin-1-yl)(2-(1-(cyclopropylmethyl)-1H-pyrrolo[2,3-b]pyridin-2-yl)-7-methoxy-1-methyl-1H-benzo[d]imidazol-5-yl)methanone, hydrochloride], for which the IC50 is above 79.4 µM in assay [1]; 0.0316 to 10 µM and 0.0794 µM in assay [2].
As to `COc1cc(C(=O)N2CCC[C@@H](N)C2)cc2nc(-c3cc4cccnc4n3CC(C)(C)C)n(C)c12` [Example 16, (R)-(3-Aminopiperidin-1-yl)(7-methoxy-1-methyl-2-(1-neopentyl-1H-pyrrolo[2,3-b]pyridin-2-yl)-1H-benzo[d]imidazol-5-yl)methanone], the figures for the IC50 in assay [1] and in assay [2] were 63.1 to 79.4 µM and 0.0316 to 10 µM, respectively.
In the same order, the values of `CCn1c(-c2nc3cc(C(=O)N4CCC[C@H](N)C4)cc(OC)c3n2C)cc2cccnc21` [Example 19, (S)-(3-Aminopiperidin-1-yl)(2-(1-ethyl-1H-pyrrolo[2,3-b]pyridin-2-yl)-7-methoxy-1-methyl-1H-benzo[d]imidazol-5-yl)methanone, hydrochloride] are 63.1 to 79.4 µM and 0.0316 to 10 µM.
Taken in the same sequence, the figures for `COc1cc(C(=O)N2CCC[C@@H](N)C2)cc2nc(-c3cc4cccnc4n3CC(C)C)n(C)c12` [Example 22, (R)-(3-Aminopiperidin-1-yl)(2-(1-isobutyl-1H-pyrrolo[2,3-b]pyridin-2-yl)-7-methoxy-1-methyl-1H-benzo[d]imidazol-5-yl)methanone, hydrochloride] were 63.1 to 79.4 µM and 0.0316 to 10 µM.
